Data published in patent publication US10206904B2, “Licofelone derivatives and methods of use” (The Board of Regents of the University of Oklahoma, priority 2015, dated 2019).
“Also recorded” adds a separate entry of the source. Where two headings read alike, the source gives them in different places.

Conditions: for Major Organ Toxicity / Liver enzymes ALKP / Liver enzymes ALT / Liver enzymes AST / Liver enzymes LDH / Ulceration (Grade) Colon / Ulceration (Grade) Small Intestine / Ulceration (Grade) Stomach: 6 weeks, male C57 mice; for Liver enzymes ALKP / Liver enzymes ALT / Liver enzymes AST / Liver enzymes LDH: Mean ± SEM
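Also: gross examination of all organs at necropsy, with liver enzyme profile and GI ulceration assessed in collected tissues and blood.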

Method: Body weights and symptoms of toxicity were recorded twice weekly for 6 weeks. […] All organs were examined grossly for any abnormalities upon necropsy. Livers, kidney, stomach, intestinal tract, and blood were obtained from the animals and analyzed for Liver enzyme profile, GI ulceration, and levels of test agents.
All animals found dead will be necropsied to confirm that the most likely cause of death was due to intestinal ulcerations.

Structure (SMILES): CCCCCCC(Sc1nc(Cl)cc(Nc2cccc(C)c2C)n1)C(=O)O (stereo not shown) [YS-121, reference compound]
- Major Organ Toxicity (25 ppm in diet): None
- Liver enzymes ALKP (25 ppm in diet): 183 ± 24 units/L
- Liver enzymes ALT (25 ppm in diet): 81 ± 11 units/L
- Liver enzymes AST (25 ppm in diet): 77 ± 8.6 units/L
- Liver enzymes LDH (25 ppm in diet): 388 ± 29 units/L
- Major Organ Toxicity (50 ppm in diet): None
- Liver enzymes ALKP (50 ppm in diet): 198 ± 33 units/L
- Liver enzymes ALT (50 ppm in diet): 96 ± 14 units/L
- Liver enzymes AST (50 ppm in diet): 90 ± 7.8 units/L
- Liver enzymes LDH (50 ppm in diet): 451 ± 38 units/L
- toxicity (75 ppm and above dose levels in diet, mice): significant toxicity
- Major Organ Toxicity (75 ppm in diet): Liver
- Liver enzymes ALKP (75 ppm in diet): 358 ± 47 units/L
- Liver enzymes ALT (75 ppm in diet): 147 ± 17 units/L
- Liver enzymes AST (75 ppm in diet): 118 ± 18 units/L
- Liver enzymes LDH (75 ppm in diet): 540 ± 51 units/L
- Major Organ Toxicity (100 ppm in diet): Liver*
- Ulceration (Grade) Colon (100 ppm in diet): Grade: 0, 1
- Ulceration (Grade) Small Intestine (100 ppm in diet): Grade: 1
- Ulceration (Grade) Stomach (100 ppm in diet): Grade: 2-3
- Liver enzymes ALKP (100 ppm in diet): 477 ± 51 units/L
- Liver enzymes ALT (100 ppm in diet): 194 ± 23 units/L
- Liver enzymes AST (100 ppm in diet): 169 ± 29 units/L
- Liver enzymes LDH (100 ppm in diet): 883 ± 68 units/L
- Major Organ Toxicity (200 ppm in diet): Liver**; also recorded: Stomach
- Ulceration (Grade) Colon (200 ppm in diet): Grade: 2
- Ulceration (Grade) Small Intestine (200 ppm in diet): Grade: 4
- Ulceration (Grade) Stomach (200 ppm in diet): Grade: 5
